Experimental data published in publication PMC13112672, “The Drp1-CoQ10-Coa6-ETC axis represents a therapeutic potential for working memory impairment caused by neuronal mitochondrial dysfunction” (Translational Neurodegeneration, 2026).

Biological target: T1, Coa6 (cytochrome c oxidase assembly factor 6) (Mus musculus, UniProt Q8BGD8)
T1 construct: E. coli BL21(DE3); Ni-bead purification (vector His tag, removal not mentioned)
T1 sequence (Q8BGD8 1-79): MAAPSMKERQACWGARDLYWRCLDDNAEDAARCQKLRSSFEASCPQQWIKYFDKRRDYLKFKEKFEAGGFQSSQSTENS
Assay: surface plasmon resonance (CM5 chip, immobilised Coa6)
Format: binding
Conditions: analyte 0.39–25 μM CoQ10; protein amine-coupled, ~12,600 RU

## COC1=C(OC)C(=O)C(C/C=C(\C)CC/C=C(\C)CC/C=C(\C)CC/C=C(\C)CC/C=C(\C)CC/C=C(\C)CC/C=C(\C)CC/C=C(\C)CC/C=C(\C)CCC=C(C)C)=C(C)C1=O [CoQ10]
  Kd: 24 µM
